Source: patent US20180179256A1 (priority 2015, published 2018)
Entries after “also recorded” stand apart in the source; their conditions may differ.

Key:
[1] = tested on: HLA-DR; assay type: cell-based, human
[2] = tested on: Normal subject PBMC; assay type: cell-based, human

Row | Sequence | % Inhibition by HLA-DR blocking Ab [1] | Peptide-specific T cell response on blocking HLA-DR (in words) [1] | Responses to the pool of IAV peptides (1-4) in presence of peptide [2] | Suppression of T cell response to pool of H7N9 ICS peptides [2] | Suppression of T cell responses to immunodominant HA peptides from circulating IAV strains [2]
1 | YAEMKWLLSNTDNAAFPQ [H7N9-2] | 100% | – | – | – | –
2 | KGILGFVFTLTVPSERGLQ [H7N9-3] | 97% | only partially inhibited | – | – | –
3 | WKQWLSLKNTLTQGSL [H7N9-14B] | – | – | Reduced responses | – | –
4 | RIDFHWLMLNPNDTVTFS [H7N9-1] | 46% | only partially inhibited | – | – | –
5 | PKYVKSNRLVLATG [IAV-4, reference compound] | 96% | only partially inhibited | – | – | –
6 | QPEWFRNVLSIAPIMFSNK [H7N9-4] | 100% | – | – | – | –
7 | IVYWKQWLSLKNLTQ [H7N9-14A] | 100% | – | Reduced responses | – | –
8 | AANIIGILHLILWILDRL [H7N9-10] | 68% | only partially inhibited | – | – | –
9 | QITFMQALQLLLEVE [H7N9-12] | 100% | – | – | – | –
10 | AVKLYKKLKREMTFHGA [H7N9-9] | 100% | – | – | did not suppress T cell responses | –
11 | PRYVKQNTLKLATG [IAV-3, reference compound] | 78% | only partially inhibited | – | – | –
12 | PRYVKQRSLLLATG [H7N9-13] | 100% | – | Reduced responses | significantly suppressed T cell response to the pooled peptides; also recorded: significantly decreased | significantly suppressed T cell response to IAV-3; also recorded: able to suppress responses
13 | PKYVKSTKLRLATG [IAV-1, reference compound] | 100% | – | – | – | –
14 | PRYVKQSTLKLATG [IAV-2, reference compound] | 73% | only partially inhibited | – | – | –
15 | SRKLLLIVQALRDNLEPG [H7N9-11] | increased response | response increased; also recorded: response was absent except when HLA-DR was blocked | – | – | –
16 | DKLYERVKRQLRENAEED [H7N9-8] | 89% | only partially inhibited | – | – | –
